Reference: PubChem BioAssay (NCI)
Where “and” joins values, the source holds several entries; their conditions need not be identical. Equal entries are not always repeated.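 Results reflect a 48-hour exposure of cells in 96-well plates to compound at five concentrations. GI50 is the concentration that inhibits growth by half. TGI: total growth inhibition.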

Key:
Assay in all cases: growth of human tumour cells (NCI), 48 h
ACHN renal = tested on: ACHN renal
HOP-92 NSCLC = tested on: HOP-92 NSCLC
OVCAR-3 ovarian = tested on: OVCAR-3 ovarian
KM12 colon = tested on: KM12 colon
HCT-116 colon = tested on: HCT-116 colon
SW-620 colon = tested on: SW-620 colon
SK-MEL-2 melanoma = tested on: SK-MEL-2 melanoma
SR leukemia = tested on: SR leukemia
HCT-15 colon = tested on: HCT-15 colon
MDA-MB-435 = tested on: MDA-MB-435

Row | Compound | TGI (ACHN renal) [µM] | TGI (HOP-92 NSCLC) | TGI (OVCAR-3 ovarian) | TGI (KM12 colon) | TGI (HCT-116 colon) | TGI (SW-620 colon) | TGI (SK-MEL-2 melanoma) | TGI (SR leukemia) | TGI (HCT-15 colon) | TGI (MDA-MB-435) [µM] | GI50 (HOP-92 NSCLC) | GI50 (OVCAR-3 ovarian) | GI50 (KM12 colon) | GI50 (HCT-116 colon) | GI50 (SW-620 colon) | GI50 (SK-MEL-2 melanoma) | GI50 (SR leukemia) [µM] | GI50 (HCT-15 colon) | GI50 (ACHN renal) [µM] | GI50 (MDA-MB-435) [µM]
1 | Clc1ccccc1NN(Cc1ccccn1)c1ccccc1Cl | > 100 | 30.5 µM | 32.9 µM | 32.9 µM | 28.8 µM | 37.7 µM | 32.6 µM | 34.1 µM | > 100 µM | 34.9 |  |  |  |  |  |  |  |  |  | 
2 | CSc1ccc(/C=C2\CNC/C(=C\c3ccc(SC)cc3)C2=O)cc1 | > 371 | 233 µM and 83.2 µg/mL | > 136 µM and 150 µg/mL | > 371 µM and 150 µg/mL | > 371 µM and 150 µg/mL | > 371 µM and 150 µg/mL | > 371 µM and 150 µg/mL | 67.8 µM and > 190 µM | > 371 µM and 150 µg/mL | > 371 | 31.9 µM and 27 µg/mL | 47.4 µg/mL | 150 µg/mL | 31.4 µg/mL | 150 µg/mL | 150 µg/mL | 23.3 | 112 µg/mL |  | 
3 | O=c1nc(-c2ccccc2)c2c3c(cccn13)CCC2 | > 100 | > 100 µM | > 100 µM | > 100 µM | > 100 µM | > 100 µM | > 100 µM | > 100 µM | > 100 µM |  |  |  |  |  |  |  |  |  |  | 
4 | CCN(c1ccc(CO)c(Cl)c1)C(C)c1ccc(F)cc1 (stereo not given) | 27.7 |  | 27.3 µM | 32.5 µM | 17.4 µM | 30.2 µM | 28 µM | 43.1 µM | 28.9 µM | 32.5 |  | 13.7 µM | 17 µM | 4.22 µM | 14.1 µM | 13.2 µM | 19.8 | 13.7 µM | 14.2 | 17.3
5 | CON(C)C(=O)C(C)NC(=O)OCc1ccccc1 (stereo not given) | > 100 | > 100 µM | > 100 µM | > 100 µM | > 100 µM | > 100 µM |  | > 100 µM | > 100 µM | > 100 |  |  |  |  |  |  |  |  |  | 
6 | CC1(C)C(=O)C(O)=CC2C1=CCC1C2(C)C(=O)CC2(C)C(C(C)(O)C(=O)CC(O)C(C)(C)O)C(O)CC12C (stereo not given) | 16.2 | 4.56 µM | 10.2 µM | > 100 µM | 33.7 µM | > 50.7 µM | 6.12 µM | 25.3 µM | > 88.7 µM |  |  |  |  |  |  |  |  |  |  | 
7 | Cc1cc(Cl)ccc1NC(=O)C(=O)Cc1nc2ccc(C(=O)c3ccccc3)cc2[nH]c1=O | > 100 | > 100 µM | > 100 µM | > 100 µM | > 100 µM | > 100 µM | > 100 µM | > 100 µM | > 100 µM |  |  |  |  |  |  |  |  |  |  | 
8 | O=C(c1ccccc1)c1c(CC(O)c2cccnc2)n(C(=O)c2ccccc2)c2ccccc12 (stereo not given) | 82.7 | 30.9 µM | 32.9 µM | 36.3 µM | 30.8 µM | 74.9 µM | 35.8 µM | 35.1 µM | 60.3 µM |  |  |  |  |  |  |  |  |  |  | 
9 | N#CC(C#N)SCc1ccccc1 | > 100 | > 87.4 µM | > 100 µM | > 100 µM | 75.5 µM | > 100 µM | 93 µM |  | > 92 µM | 35.7 |  |  |  |  |  |  |  |  |  | 
10 | O=C(CCc1nc(=S)[nH][nH]1)NC12CC3CC(CC(C3)C1)C2 | > 100 | > 100 µM | > 100 µM | > 100 µM | > 100 µM | > 100 µM | > 100 µM | > 100 µM | > 100 µM |  |  |  |  |  |  |  |  |  |  | 
11 | COc1ccc(C(C2=C(C)C(=O)c3ccccc3C2=O)c2ccc(C(C)C)cc(=O)c2O)cc1 (stereo not given) | 9.96 | 10.3 µM | 8.54 µM | > 100 µM | 14.7 µM | > 100 µM | 22.3 µM | 21.3 µM | 32.2 µM |  |  |  |  |  |  |  |  |  |  | 
12 | C[C@]12CC[C@@H]3c4ccc(O)c([N+](=O)[O-])c4CC[C@H]3[C@@H]1CC[C@@H]2NS(=O)(=O)c1ccc(C(F)(F)F)cc1 | 6.78 | 2.62 µM |  | 3.51 µM | 2.99 µM | 4.78 µM | 4.18 µM | 4.14 µM | 3.58 µM | 3.63 | 1.12 µM |  | 1.76 µM | 1.6 µM | 2.04 µM | 2.1 µM | 1.65 | 1.71 µM | 2.17 | 1.74
13 | CC[C@H](C)[C@H](NC(=O)c1cnccn1)C(=O)N(C)[C@H](C[C@@H](OC(C)=O)c1nc(C(=O)N[C@@H](Cc2ccccc2)C[C@H](C)C(=O)OC)cs1)C(C)C | > 33.3 | 11.4 µM | 1.62 µM | > 33.3 µM | > 33.3 µM | > 33.3 µM | > 33.3 µM | > 33.3 µM | > 33.3 µM |  | 0.416 µM | 0.665 µM | 0.107 µM | 1.19 µM | 1.28 µM | 0.827 µM | 0.048 | 1.06 µM | 2.69 | 
14 | CC(C)(C)OC(=O)NCC(C#N)CNC(=O)OC(C)(C)C | > 100 | > 100 µM | > 100 µM | > 100 µM | > 100 µM | > 100 µM |  | > 100 µM | > 100 µM | > 100 |  |  |  |  |  |  |  |  |  | 
15 | COc1ccc(OC)c(-c2cc(-c3ccccc3)nn2-c2ccc(S(=O)(=O)NC(C)=O)cc2)c1 |  | 38.9 µM | 9.55 µM | 39.6 µM |  | 9.15 µM | > 100 µM | > 100 µM | 10.2 µM | 22.9 | 14.4 µM | 2.82 µM | 4.66 µM |  | 3.52 µM | 36.2 µM | 2.38 | 3.72 µM |  | 5.77
16 | CSc1ccc(C2=Nn3c(nnc3-c3ccc(F)c(Cl)c3)SC2)cc1 | 33.6 | 14.8 µM | 21 µM | 45.1 µM | 23.4 µM | > 100 µM | 18 µM |  | > 100 µM | 5.21 | 4 µM | 5.62 µM | 7.78 µM | 9.85 µM | 11.6 µM | 4.77 µM |  | 10.1 µM | 13.7 | 1.5
17 | CC(=O)c1cccc(N(/C=C/C(=O)C(F)(F)F)CC(=O)c2ccc(Cl)cc2)c1 | > 100 | > 100 µM | > 100 µM | > 100 µM | > 100 µM | > 100 µM | > 100 µM |  | > 100 µM | > 100 | > 100 µM | > 100 µM | > 100 µM | > 100 µM | > 100 µM | > 100 µM |  | > 100 µM | > 100 | > 100
18 | O=c1oc2ccccc2c(O)c1C=NC(=S)c1ccncc1 | > 100 | > 100 µM | > 100 µM | > 100 µM | > 100 µM | > 100 µM | > 100 µM |  | > 100 µM | > 100 |  |  |  |  |  |  |  |  |  | 
19 | COc1ccc(C(=O)N2c3ccccc3Sc3ccccc32)c(F)c1 | > 100 | 59.7 µM | > 100 µM | > 100 µM | > 100 µM | > 100 µM | > 100 µM | > 100 µM | > 100 µM |  | 0.238 µM | 0.418 µM | 0.489 µM | 0.393 µM | 0.458 µM | 0.531 µM | 0.38 | 0.419 µM | 0.831 | 
20 | C=C1C(=O)O[C@@H]2C[C@@]3(C)CC(=O)C=C(C)[C@@H]3C[C@H]12 | 8.69 | 55 µM | 19.9 µM | 37.9 µM | 20.2 µM | 22.6 µM | 29.8 µM |  | 15.2 µM | 30.5 |  |  |  |  |  |  |  |  |  | 
21 | COc1cc(-c2csc(NC(=O)c3cc(C(F)(F)F)cc(C(F)(F)F)c3)n2)cc(OC)c1OC | > 100 | 4.11 µM | 19 µM | > 100 µM |  | > 100 µM | 4.81 µM | 11.6 µM | > 100 µM | > 100 | 0.848 µM | 2.98 µM | 2.86 µM |  | 3.44 µM | 1.6 µM | 2.67 | 2.71 µM | 3.42 | 2.67
22 | O=C(CC(C(=O)c1cccs1)c1ccc2c(c1)OCO2)c1ccc(Br)cc1 (stereo not given) | > 100 |  |  | > 100 µM |  | > 100 µM |  | > 100 µM | > 100 µM | > 100 |  |  |  |  |  |  |  |  |  | 
23 | COc1cc(Nc2ccnc(N3CCN(c4ccnc5cc(Cl)ccc45)CC3)n2)cc(OC)c1 | > 100 | 6.61 µM | > 28.9 µM | > 100 µM | 10.3 µM | > 27.8 µM | 4.02 µM |  | > 100 µM | 0.626 | 0.431 µM | 2.53 µM | 0.101 µM | 0.496 µM | 0.601 µM | 0.738 µM |  | 0.109 µM | 2.04 | 0.209
24 | Fc1cccc(Cl)c1C1SCc2nc3ccccc3n21 (stereo not given) | > 100 | 37.8 µM | 53.2 µM | 59.5 µM | 55.1 µM | > 100 µM | 51 µM | 54.4 µM | > 100 µM |  |  |  |  |  |  |  |  |  |  | 
25 | Cn1cc(C2=C(c3cn(C)c4ccc(N)cc34)C(=O)NC2=O)c2ccccc21 | > 25 |  | 16 µM | > 25 µM | > 25 µM | > 25 µM | > 25 µM | > 25 µM | > 25 µM | > 25 |  | 4.79 µM | 6.4 µM | 6.65 µM | 5 µM | 8.46 µM | 2.05 | 4.52 µM | 13.9 | 0.729
